Data: patent EP0209462A1, “Liquid stable anthelmintic and fungicidal composition based on bithionol sulfoxide” (SOCIETE NATIONALE ELF AQUITAINE, priority 1985, dated 1987)
Where two headings read alike, the source gives them in different places.

Assays:
[1] = Maximum tolerated dose and therapeutic index; settings: in vivo, read-out: indice thérapeutique
Source text: La présente invention apporte un progrès marqué dans les traitements des atteintes justiciables du bithionol sulfoxyde et des mélanges de ce composé avec d'autres anthelminthiques. Elle permet l'application des composés actifs sous la forme d'un liquide homogène, ne donnant pas lieu à la sédimentation, susceptible par conséquent d'être dosé avec précision et appliqué par des personnes non spécialisées.Un autre avantage considérable de la composition suivant l'invention est la possibilité de l'administration de celle-ci par injection, forme qui était complètement exclue jusqu'à présent. Un autre avantage également très important de la composition selon l'invention est qu'elle permet l'utilisation du bithionol sulfoxyde et des autres anthelminthiques, composant le mélange, à des doses moindres que celles qui étaient jusqu'alors utilisées. Pour n'en donner qu'un exemple pour le bithionol sulfoxyde, cette dose peut passer de 40 mg/kg de poids vif traité à 30 mg/kg pour une même efficacité. Lorsque l'on sait que la dose maximale tolérée est de 150 mg/kg, cela fait passer l'indice thérapeutique de moins de 4 à 5.

[2] = cited from earlier work
[3] = Stability test at different pH and temperatures (assay of both actives); format: physicochemical
Source text: Des échantillons de la composition de l'exemple 9, qui contient 8% de bithionol sulfoxyde et 1,9% de chlorhydrate de levamisole, sont amenés à différents pH et conservés aux différentes températures, comme indiqué au tableau 4 ci-après.
Les pH inférieurs à 7 sont ajustés avec du tampon mandéli- que (1 M), tandis que les phosphates habituels ont servi (0,025 M) à fixer le pH supérieur à 7.
Dans chaque cas, le dosage des deux corps actifs est effectué aux différentes périodes choisies et les teneurs en ces corps sont notées au tableau 4.

[4] = in vivo; cited from earlier work

Compound | selectivity ratio ([1]; dose 30 mg/kg (composition selon l'invention)) | selectivity ratio ([1]; dose 40 mg/kg de poids vif (earlier forms)) | insolubilité dans l'eau ([2]; à 25°C) [ppm] | conservation ([3]; pH 2 à 4) | conservation ([3]; pH de 6 à 8) | dose maximale tolérée [4] [mg/kg] | solubilité dans l'eau ([2]; water) [%] | conservation ([3]; pH 6 à 8)
[O-][S+](c1cc(Cl)cc(Cl)c1O)c1cc(Cl)cc(Cl)c1O [bithionol sulfoxyde, bis(hydroxy-2 dichloro-3,5 phényl) sulfoxyde] | 5 | < 4 | 4 | tout à fait satisfaisante | se conserve bien | 150 |  | 
c1ccc([C@H]2CN3CCSC3=N2)cc1 [chlorhydrate de L(-) levamisole, tétrahydro-2,3,5,6 phényl-6 imidazo(2,1-b)thiazole] |  |  |  |  |  |  | ~20 | tient mal
